Test results: patent publication US10774049B2, “PU.1 inhibitors” (Albert Einstein College of Medicine, priority 2016, dated 2020)
Counter-ions that a name gives are not always drawn.

Tests used:
[1] = test system: PU.1 URE−/− AML cells; assay: Colony forming capacity and serial replating of PU.1 URE−/− AML cells; assay type: cell-based, murine
Protocol: FIG. 2A-2F. PU.1 inhibition decreases cell growth and increases apoptosis of PU.1^1″ leukemic cells. (A) Chemical structures of heterocyclic diamidines DB1976, DB2115 and DB2313 used in this study. (B) Relative cell viability of URE−/− cells and BAF3 cells after treatment with increasing concentrations of vehicle or small molecules. Cell viability was assessed after 48 h. Data represent means of technical triplicate from one representative experiment; fold change compared to Vehicle is shown. (C) Cell proliferation assay of URE−/− after treatment with DB1976 (n=5), DB2115 (n=3), DB2313 (n=3), of MOLM13 cells (n=3), and THP1 cells (n=3). Cell counting was performed every 24 h during 4 days. Data represent means±SD of technical triplicate from one representative experiment. Forward strand: SEQ ID NO:3, and Reverse strand: SEQ ID NO:4; derived from the λB motif from the murine Ig lambda 2-4 enhancer, a known native PU.1-dependent gene and specific binding site for PU.1. (D) Clonogenic capacities of URE−/− cells after treatment with DB1976 (n=5), DB2115 (n=3) and DB2313 (n=4) in the first plating, and after serial replatings (n=3). Data represent means±SD of technical triplicate from one representative experiment. (E) Apoptotic cells (Annexin-V+Dapi−) fraction in URE−/− cells after 48 h of treatment with DB1976 (n=6), DB2115 (n=6) and DB2313 (n=3). […]

[2] = test system: PU.1 URE−/− AML cells; assay: Gene expression (transcriptome) analysis of PU.1 URE−/− AML cells; assay type: cell-based, murine; conditions: by at least 1.2-fold
Protocol: FIG. 3A-3G. Novel inhibitors show on-target PU.1 inhibitory activity. (A) Quantitative RT-PCR analysis of Csf1r, Junb, Sfpi1, E2f1 expression after 72 h (n=6) and, for Csf1r, after 1 h (n=3), 4 h (n=7), 8 h (n=3) and 24 h (n=3) of treatment with the small molecules in URE−/− cells, expression is normalized to GAPDH expression. Data represent means±SD of technical triplicate from one representative experiment; fold change compared to Vehicle is shown. (B) Chromatin immunoprecipitation assay showing PU.1 occupancy on E2f1, Junb, Csf1r promoters after treatment in Umsh cell line (n=5). 10·10^6 cells were collected for each condition after 8 h treatment with a double dose of the small molecules (50 uM for DB1976, 1.4 uM for DB2115 and 660 nM for DB2313) or Vehicle; and processed for ChIP using PU.1 monoclonal antibody. Myogenin was used as a negative control, not regulated by PU.1. Data represent means±SD of technical triplicate from one representative experiment. (C) Cell viability after PU.1 rescue in MOLM13 cells. MOLM13 were transduced with a lentiviral construct expressing either PU.1-GFP (PU.1, black bar) or GFP as a control (empty, white bar), sorted on GFP and plated with DB1976 (n=7), DB2115 (n=8), DB2313 (n=6) or Vehicle. Cell count was performed after 4 days. Data represent means±SD of technical triplicate from one representative experiment; fold change compared to Vehicle is shown. (D-G) Transcriptome analysis of URE−/− cells after 24 h of treatment with DB2313 versus vehicle (n=3). Differentially expressed genes were determined with a fold change at 1.2 and a P value <0.1. (D) Enrichment in genes directly regulated by PU.1 or in genes regulated by the other ETS transcription factors Ets1, Gabpa, Spi-B, Fli-1, using Ingenuity Knowledge Base. The red dotted line represents the significance threshold (−log (P value)>1.3). […] Deregulated gens in PUER cells were analyzed with a FC at 1.5 and P-value <0.05. […] P-value was calculated using the hypergeometric test. […]

[3] = test system: PU.1 URE−/− AML cells; assay: Transplantation of in vitro treated PU.1 URE−/− AML cells into sublethally irradiated mice; assay type: in vivo, mouse
Protocol: FIG. 6A-6H. Treatment with PU1 inhibitors increases survival and decreases tumor burden in vivo. (A) Experimental scheme. URE−/− cells were treated in vitro with DB2313 or Vehicle and counted after 2 days of culture. 200·10^3 viable cells per mouse were injected retroorbitally into sublethally irradiated mice. Mice were sacrificed at 6 weeks or used for survival analyses. (B) Kaplan-Meier survival analysis of transplanted mice (x animals for vehicle group, xx for DB2313 group, from 2 independent experiments, p=). (C,D) Spleen and liver weight 6 weeks after transplant (8 animals for vehicle group, 7 for DB2313 group). Data represent means±SD, each mouse is represented by an individual dot. (E) Chimerism of URE−/− cells in the bone marrow 6 weeks after transplant (14 animals per group from 2 independent experiments).
To assess the effect of PU.1 inhibitors on AML in vivo, we treated PU.1 URE^−/− AML cells for 2 days in vitro and injected 2×10^5 viable cells in sublethally irradiated recipient mice (FIG. 6A).

## CC(C)NC(=N)c1ccc2nc(-c3ccc(OCc4cccc(COc5ccc(-c6nc7ccc(C(=N)NC(C)C)cc7[nH]6)cc5)c4F)cc3)[nH]c2c1 [DB2313, 3-Bis{4[4(5)-N-isopropylamidinobenzimidazolyl]phenoxymethyl]}-2-fluorobenzene tetrahydrochloride]
[1]
  clonogenic capacity in serial replating, 4th and higher rounds of plating: complete disruption
  clonogenicity in serial replating, second and third rounds of plating: highly significant decrease
[2]
  number of downregulated probe sets: 781 probe sets
  number of upregulated probe sets: 867 probe sets
[2]; 24 h
  number of dysregulated transcripts (out of 34,472 total): 1648 transcripts
[3]; 6 weeks after transplant, vehicle 55%
  mean chimerism, AML cell engraftment in the bone marrow: 33%
[3]; 6 weeks post transplantation, vehicle 410 mg
  splenic mean weight: 243 mg
[3]; 6 weeks post transplantation, vehicle 2,347 mg
  liver mean weight: 1,548 mg
[3]; cells treated 2 days in vitro, vehicle 44 days
  median latency (survival of recipient mice): 68 days
[3]; in comparison to vehicle group
  histology: blast infiltration and disruption of splenic architecture: significantly less pronounced effects
  infiltration of the liver by leukemic blasts: substantially reduced
